Assay results from ChEMBL document CHEMBL5506055, “Hit-to-Lead Optimization of the Natural Product Oridonin as Novel NLRP3 Inflammasome Inhibitors with Potent Anti-Inflammation Activity” (J Med Chem, 2024).

Tests used:
[1] = target: NACHT, LRR and PYD domains-containing protein 3 (Mus musculus) (UniProt Q8R4B8); test: Inhibition of NLRP3 inflammasome activation in LPS/ATP-induced C57BL/6 mouse BMDMs assessed as reduction in IL-1beta secretion at 500 nM preincubated with LPS for 4 hrs followed by compound addition for 30 mins and further stimulated with ATP for 30 mins by ELISA relative to control; assay type: cell-based; details: BMDM, time 1.0 hrs
Chain of NACHT, LRR and PYD domains-containing protein 3 (Mus musculus) (Q8R4B8 whole entry, the tested form may be a part): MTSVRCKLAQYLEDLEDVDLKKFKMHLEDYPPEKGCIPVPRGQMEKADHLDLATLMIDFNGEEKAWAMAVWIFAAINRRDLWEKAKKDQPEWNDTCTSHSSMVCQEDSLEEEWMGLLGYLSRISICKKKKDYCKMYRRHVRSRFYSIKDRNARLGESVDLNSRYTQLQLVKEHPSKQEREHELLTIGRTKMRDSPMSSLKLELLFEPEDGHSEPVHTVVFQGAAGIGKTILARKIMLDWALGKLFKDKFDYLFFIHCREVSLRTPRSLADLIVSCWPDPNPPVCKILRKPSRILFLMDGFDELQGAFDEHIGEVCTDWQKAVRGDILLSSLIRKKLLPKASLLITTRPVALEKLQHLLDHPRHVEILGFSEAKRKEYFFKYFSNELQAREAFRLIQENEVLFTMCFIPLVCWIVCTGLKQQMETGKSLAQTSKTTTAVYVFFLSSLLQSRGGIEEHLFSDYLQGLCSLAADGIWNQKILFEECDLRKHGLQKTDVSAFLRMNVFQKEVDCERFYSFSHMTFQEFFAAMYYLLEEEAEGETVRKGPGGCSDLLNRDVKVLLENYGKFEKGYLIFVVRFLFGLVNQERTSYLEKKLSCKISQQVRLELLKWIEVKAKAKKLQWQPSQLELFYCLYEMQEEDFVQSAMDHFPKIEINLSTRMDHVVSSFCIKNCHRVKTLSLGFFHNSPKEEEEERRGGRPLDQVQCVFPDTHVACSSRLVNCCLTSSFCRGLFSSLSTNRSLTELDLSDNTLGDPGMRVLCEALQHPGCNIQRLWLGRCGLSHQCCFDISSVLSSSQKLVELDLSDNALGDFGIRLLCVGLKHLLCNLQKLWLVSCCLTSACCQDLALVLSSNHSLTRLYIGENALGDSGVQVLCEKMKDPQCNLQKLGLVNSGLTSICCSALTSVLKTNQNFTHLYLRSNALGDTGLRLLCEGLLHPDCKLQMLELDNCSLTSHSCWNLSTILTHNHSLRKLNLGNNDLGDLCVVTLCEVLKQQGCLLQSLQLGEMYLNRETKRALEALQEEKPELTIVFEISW

[2] = target: NACHT, LRR and PYD domains-containing protein 3 (Mus musculus) (UniProt Q8R4B8); test: Inhibition of NLRP3 inflammasome activation in LPS/ATP-induced C57BL/6 mouse BMDMs assessed as reduction in IL-1beta secretion at 100 nM preincubated with LPS for 4 hrs followed by compound addition for 30 mins and further stimulated with ATP for 30 mins by ELISA relative to control; assay type: cell-based; details: BMDM, time 1.0 hrs
[3] = target: NACHT, LRR and PYD domains-containing protein 3 (Mus musculus, UniProt Q8R4B8); test: Inhibition of NLRP3 inflammasome activation in LPS/ATP-induced C57BL/6 mouse BMDMs assessed as reduction in IL-1beta secretion preincubated with LPS for 4 hrs followed by compound addition for 30 mins and further stimulated with ATP for 30 mins by ELISA; assay type: cell-based, BMDM
Chain of NACHT, LRR and PYD domains-containing protein 3 (Q8R4B8 whole entry, the tested form may be a part): as above

[4] = target: NACHT, LRR and PYD domains-containing protein 3 (Mus musculus) (UniProt Q8R4B8); test: Inhibition of NLRP3 inflammasome activation in LPS/ATP-induced C57BL/6 mouse BMDMs assessed as reduction in IL-1beta secretion at 200 nM preincubated with LPS for 4 hrs followed by compound addition for 30 mins and further stimulated with ATP for 30 mins by ELISA relative to control; assay type: cell-based; details: BMDM, time 1.0 hrs

SMILES	inhibition [1] [%]	inhibition [2] [%]	IC50 [3] [nM]	inhibition [4] [%]
C=C1C(=O)[C@]23[C@H](O)[C@H]1CC[C@H]2[C@]12C=CCC(C)(C)[C@H]1[C@H](O)[C@@]3(OCCC(=O)NC(C)C)OC2	84.8	56.2	90.6	63.6
C=C1C(=O)[C@]23[C@H](O)[C@H]1CC[C@H]2[C@]12C=CCC(C)(C)[C@H]1[C@H](O)[C@@]3(OCCCC(=O)O)OC2	83	57.1	81.7	68.7
C=C1C(=O)[C@]23[C@H](O)[C@H]1CC[C@H]2[C@]12C=CCC(C)(C)[C@H]1[C@H](O)[C@@]3(O)OC2	64.3	30.3		45.3
C=C1C(=O)[C@]23[C@H](O)[C@H]1CC[C@H]2[C@]12C=CCC(C)(C)[C@H]1[C@H](O)[C@@]3(OCC)OC2	66.1	31.3		46.5
C=C1C(=O)[C@]23[C@H](OCc4ccc(Cl)cc4)[C@H]1CC[C@H]2[C@]12C=CCC(C)(C)[C@H]1[C@H](O)[C@@]3(O)OC2	72.4	44.8		58.7
C=C1C(=O)[C@]23[C@H](O)[C@H]1CC[C@H]2[C@]12C=CCC(C)(C)[C@H]1[C@H](O)[C@@]3(OCCCc1ccc(Cl)cc1)OC2	65	7.3		47.8
C=C1C(=O)[C@]23[C@H](O)[C@H]1CC[C@H]2[C@]12C=CCC(C)(C)[C@H]1[C@H](O)[C@@]3(OCc1ccc(Cl)cc1)OC2	75.5	40.5		63.3
C=C1C(=O)[C@]23[C@H](O)[C@H]1CC[C@H]2[C@]12C=CCC(C)(C)[C@H]1[C@H](O)[C@@]3(OCCCCCc1ccccc1)OC2	63.1	13.3		44.6

More lines, now with the values ahead:

inhibition [1] [%]	inhibition [2] [%]	IC50 [3] [nM]	inhibition [4] [%]	SMILES
82.1	43.7	147	52.4	C=C1C(=O)[C@]23[C@H](O)[C@H]1CC[C@H]2[C@]12C=CCC(C)(C)[C@H]1[C@H](O)[C@@]3(OCCC(=O)N1CCCCC1)OC2
71.4	33.1		50.2	C=C1C(=O)[C@]23[C@H](OCc4ccc5ccccc5c4)[C@H]1CC[C@H]2[C@]12C=CCC(C)(C)[C@H]1[C@H](O)[C@@]3(O)OC2
74.1	36.5	194	40.6	C=C1C(=O)[C@]23[C@H](O)[C@H]1CC[C@H]2[C@]12C=CCC(C)(C)[C@H]1[C@H](O)[C@@]3(OCCC(=O)NC1CCCCC1)OC2
69.9	18	286	49	C=C1C(=O)[C@]23[C@H](O)[C@H]1CC[C@H]2[C@]12C=CCC(C)(C)[C@H]1[C@H](O)[C@@]3(OCCC(=O)NCCOC)OC2
85.7	35.2		47.5	C=C1C(=O)[C@]23[C@H](O)[C@H]1CC[C@H]2[C@]12C=CCC(C)(C)[C@H]1[C@H](O)[C@@]3(OCc1ccc3ccccc3c1)OC2
88.1	42.5		70.1	C=C1C(=O)[C@]23[C@H](O)[C@H]1CC[C@H]2[C@]12C=CCC(C)(C)[C@H]1[C@H](O)[C@@]3(OCc1ccccc1)OC2
85.5	45.1		68	C=C1C(=O)[C@]23[C@H](OCc4ccccc4)[C@H]1CC[C@H]2[C@]12C=CCC(C)(C)[C@H]1[C@H](O)[C@@]3(O)OC2
66.6	24		48.4	C=C1C(=O)[C@]23[C@H](O)[C@H]1CC[C@H]2[C@]12C=CCC(C)(C)[C@H]1[C@H](O)[C@@]3(OCCCc1ccccc1)OC2
89.2	38.8		64.7	C=C1C(=O)[C@]23[C@H](O)[C@H]1CC[C@H]2[C@]12C=CCC(C)(C)[C@H]1[C@H](O)[C@@]3(OCc1ccc(C#N)cc1)OC2
86.6	31.1		69.6	C=C1C(=O)[C@]23[C@H](OCc4ccc(C#N)cc4)[C@H]1CC[C@H]2[C@]12C=CCC(C)(C)[C@H]1[C@H](O)[C@@]3(O)OC2
